Assay results taken from patent US20090028830A1, “Preparation of multipotent stem cells and the use thereof” (priority 2005, published 2009).

Target: T1, PKCβ2 (Homo sapiens, UniProt P05771)
T1 construct: mononucleated cells constitutively expressed PKC isoforms α, β1, β2, γ, l/λ and ζ; endogenous in cells; host or cells: mononucleated cells (monocytes)
Assay: PKC isoform activation/translocation in mononucleated cells during P-stem cell differentiation
Assay type: cell-based
Details: mononucleated cells pre-treated with Go6976 (1 μM) 30 minutes at 37° C., then Bryostatin-1 (10 nM) at designated time intervals; combined treatment; FIG. 4
Experimental: The constitutively expressed PKC isoforms in mononucleated cells are detected by Western Blot analysis with each PKC isoform-specific antibodies. […] In the FIG. 1, Mo and pc represents mononucleated cell and PKC positive cell lysate, respectively. To examine the specific activation of PKC isoform(s) iii the differentiation of P-stem cells, mononucleated cells are pre-treated with Go6976 (1 μM) for 30 minutes at 37° C. and then incubated with Brvostatin-1 (10 nM) at designated time intervals. […] Therefore, any substances stimulating the activation of PKCβ2 are capable of inducing the differentiation of P-stem cells.

T1 sequence (P05771 1-673 isoform P05771-2): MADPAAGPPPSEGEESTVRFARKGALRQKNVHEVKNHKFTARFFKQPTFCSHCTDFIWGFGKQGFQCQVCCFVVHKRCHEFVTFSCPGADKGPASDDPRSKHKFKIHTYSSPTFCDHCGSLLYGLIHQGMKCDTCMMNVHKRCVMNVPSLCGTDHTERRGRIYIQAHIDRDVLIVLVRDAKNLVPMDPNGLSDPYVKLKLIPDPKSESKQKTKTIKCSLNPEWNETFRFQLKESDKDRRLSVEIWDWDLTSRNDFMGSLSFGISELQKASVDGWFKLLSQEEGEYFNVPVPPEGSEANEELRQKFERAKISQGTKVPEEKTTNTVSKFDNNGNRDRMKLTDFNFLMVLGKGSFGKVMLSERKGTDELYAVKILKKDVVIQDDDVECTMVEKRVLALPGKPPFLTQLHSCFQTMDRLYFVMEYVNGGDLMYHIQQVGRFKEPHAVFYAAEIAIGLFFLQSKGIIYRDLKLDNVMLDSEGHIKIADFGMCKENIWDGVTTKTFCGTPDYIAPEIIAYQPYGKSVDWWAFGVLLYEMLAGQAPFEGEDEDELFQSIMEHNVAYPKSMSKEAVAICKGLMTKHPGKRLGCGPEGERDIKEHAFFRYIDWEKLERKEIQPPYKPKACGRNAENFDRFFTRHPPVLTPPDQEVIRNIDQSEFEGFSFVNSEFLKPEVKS

Row | SMILES | specific activation of PKC isoform(s) (translocation from cytosol to plasma membrane)
1 | CCC/C=C/C=C/C(=O)O[C@H]1/C(=C/C(=O)OC)C[C@H]2C[C@H]([C@@H](C)O)OC(=O)C[C@H](O)C[C@@H]3C[C@H](OC(C)=O)C(C)(C)[C@](O)(C[C@@H]4C/C(=C/C(=O)OC)C[C@H](/C=C/C(C)(C)[C@]1(O)O2)O4)O3 [Brvostatin-1, Bryostatin-1] | only PKCβ2 is activated and translocates from cytosol to plasma membrane
2 | Cn1c2ccccc2c2c3c(c4c5ccccc5n(CCC#N)c4c21)CNC3=O [Go6976] | only PKCβ2 is activated and translocates from cytosol to plasma membrane
